The values below come from US12712060B2, “Multi-modal crypto/bio-human-machine interface” (The Regents of the University of California, priority 2022, dated 2026).

The conditions of series [1]: human, in vivo, 60 min.
From the text: Embodiments specifically employ the ethanol TH-sensor to assess whether the sensor is capable of differentiating between two states: no alcohol-intake vs. recent intake of an alcoholic beverage. For this context, defined were the measured signal S as the slope of the sensor's amperometric response, and the threshold as Sfree, avg+3×Sfree, SD, where Sfree, avg and Sfree, SD are the average and standard deviation of the signals obtained from the alcohol-free subject (three trials). […] Then performed were touch-based TH-sensor measurements before (t=−20 min) and after (t=+60 min) the intake of an alcoholic beverage (~100 mL, 12.5% alcohol).
Two human subjects participated in the characterization of each type of TH-sensor. For each trial, the subjects were instructed to wash their index fingertips with deionized (DI) water before testing and to rinse their mouth with cold water immediately after the beverage/medication intake (to avoid contamination from residue). Touch-based measurements were performed using corresponding TH-sensors before and at intermittent time points after the beverage/medication intake. The water loss from the fingertip was monitored by an evaporimeter (VapoMeter, Delfin Technologies). The fingertip temperature was monitored by a thermocouple (HT-9815, RISEPRO). […] BAC was estimated using an alcohol breathalyzer (S80, BACtrack Inc.). […]
Series [2] in a line: touch-based APAP TH-sensor (DPV) measurement on index fingertip after APAP medication intake. The settings on record: 60 min after intake of 650 mg APAP, APAP-free threshold 3.7 nA. It counts as in vivo, human. On the procedure:
Adopted was a similar study framework to evaluate the in-situ detection capability of APAP TH-sensor. For this context, the measured signal is defined as the voltammetric current peak height ([…]), and the threshold for determining the APAP-free state was measured as 3.7 nA (three trials). FIGS. 3D and 3E show the corresponding voltammograms measured by the APAP TH-sensor, 10 min before and 60 min after the intake of an APAP-based medication (containing 650 mg APAP). The comparison of the two voltammograms and the corresponding extracted current peaks (IP, pre-intake ~0 nA vs. IP, post-intake ~15 nA) validates that the developed TH-sensor is capable of detecting the presence of circulating APAP molecules via the devised touch-based modality.

The conditions of series [3]: cited from earlier work.
The conditions of series [4]: patient, 900 mg lithium carbonate; ~0-1 h pre-intake vs ~1-2 h post-intake.
Method: Further validated was the performance of the developed TOH-ISE in an in-situ lithium adherence monitoring study. To this end, a subject prescribed lithium-based medication was recruited. […] In a control experiment, touch-based sensing and salivary lithium analysis were also performed on three healthy subjects, where circulating lithium is expected to be negligible.
In-situ TOH-ISE characterization. […] For each touch-based entry, the subjects were instructed to wash their index or middle fingertips with DI water before testing. The acquired potentiometric readouts were processed using the same method as the ex-situ experiments to extract the sensing signal. For saliva collection, the subjects were instructed to rinse their mouth with cold water before collection. The samples were collected via direct salivation using a Saliva Collection Aid (Salimetrics, CA, USA). The salivary lithium was quantified using a colorimetric lithium assay kit (Abcam ab235613, MA, USA) and Nanodrop One (Thermo Fisher, MA, USA).

In the case of `CCO` [ethanol], the “ethanol TH-sensor signal S (slope of amperometric response)” value in series [1] was determined as 21.5 nA/min.

For `CC(=O)Nc1ccc(O)cc1` [APAP, acetaminophen], the “APAP TH-sensor voltammetric current peak height IP, post-intake” value in series [2] is recorded as ~ 15 nA.

`O=C([O-])[O-].[Li+].[Li+]` [lithium, lithium carbonate]: the “clinically relevant range in non-invasively retrievable biofluid (e.g., saliva)” value in series [3] (saliva, ~twice the corresponding serum concentrations) is 0.5 to 3 mM. Besides, the therapeutic window in series [3] (severe adverse effects if overdosed) is 0.6 to 1.2 mM. In addition, the “TOH-ISE touch-based sensing signal, post versus pre drug intake” value in series [4] is “larger signal”.
